Source: patent US9718781B2, “Methods and compounds for treating proliferative disorders and viral infections” (University College Dublin, National University of Ireland, …, priority 2012, dated 2017)
Like-named read-outs stand apart in the source and are kept apart here.

System: human platelets
Experiment: U46619-induced human platelet aggregation ex vivo (platelet rich plasma)
Format: cell-based
Source text: A modification of the turbidimetric method originally developed by Born & Cross (Born, G. V. and Cross, M. J., The Aggregation of Blood Platelets, J Physiol, 1963, 168:178-95) is used. The principle is based on the diffraction of the light by particles. When a light beam passes through a suspension of particles, it is diffracted, depending on the number and the size of the particles in suspension.
In the Born & Cross method, a light beam passes through a platelet suspension and the quantity of light is measured by a detector placed after the sample. Upon platelet aggregation, the size of platelet aggregates will increase while the total number of free platelets will decrease. Consequently, less light will be diffracted and the detector will record an increase in light intensity. The aggregometer has been developed based on these concepts. Variations in light transmission recorded by this device reflects the platelet physiology. When an agonist of platelet aggregation is added to a platelet suspension, platelets undergo activation and shape change. This step is characterized by an increase in platelet's apparent volume and thus a decrease of transmitted light. Subsequent platelet aggregation gradually forms aggregates of increasing size. Transmitted light slightly increases until a plateau is reached. The aggregation of platelet can be confirmed after the experiment by visual direct inspection of the test tube.
Preparation of platelet suspension is achieved by blood centrifugation at 160 g for 10 minutes. The PRP is re-centrifuged at 160 g for 10 min to remove contaminating red and white blood cells. The supernatant which is collected contains the platelets rich plasma (PRP). The remaining blood is subsequently centrifuged at 900 g for 15 min in order to retrieve plasma (platelets poor plasma, PPP). PRP is diluted with PPP to reach a final concentration of 150×10^3 […] PRP is kept warmed at 37° C. in the aggregometer and the adequate dilution of drug to test is introduced in the sample. Platelet aggregation is induced after 10 minutes incubation. Light transmission (T) is measured throughout the experiment, which is ended 8 minutes after induction of aggregation. Maximal light transmission (Tmax) is determined in the sample without drugs. Minimal light transmission (Tmin) is measured in PRP without inducer.
The effect of NTP4 and the previously identified lead TP antagonist, TP20, on U46619-mediated platelet aggregation in side-by-side comparisons was performed in platelet rich plasma (PRP) using the PAP-8E platelet aggregometer.
FIG. 4A-4C show the effect of TP20 & NTP4 on U46619-mediated platelet aggregation. PRP was prepared from blood taken from healthy volunteers into syringes containing 3.8% sodium citrate and 10 μM indomethacin such that the final ratio of anticoagulant to blood was 1:9. Aliquots of PRP (300 μl) were pre-incubated for 10 min with the TP antagonists, TP20 and NTP4, where 2-fold serial dilutions from 1 μM were prepared for each, prior to stimulating platelets with 1 μM U46619, incubated at 37° C., with stirring. FIG. 4A and FIG. 4B: Representative dose-response platelet aggregation profiles for TP20 (FIG. 4A) and NTP4 (FIG. 4B), where data is presented as Percentage Aggregation, as determined by changes in light transmission using the PAP-8E Platelet Aggregation Profiler as a function of time. FIG. 4C: The dose-response curves for platelet aggregation are presented as the mean (±S.E.M.) maximum Percentage Aggregation as a function of the log of the TP antagonist concentration. Data presented is representative of ≧6 independent experiments.

[1] = PRP, PAP-8E aggregometer, 1 μM U46619, side-by-side, read-out: IC50 Value for Inhibition of U46619-Mediated Platelet Aggregation (Mean ± S.E.M.)

Compound	IC50 (Homo sapiens, Platelet, PRP, PAP-8E aggregometer, 1 μM U46619, side-by-side, read-out: IC50 Value for Inhibition of U46619-Mediated Platelet Aggregation (Mean ± S.E.M.)) [nM]	IC50 [1] [nM]	IC50 (Homo sapiens, Platelet, human platelets ex vivo, Table 3, read-out: IC50 data for inhibition of U46619-induced platelet aggregation) [nM]
COc1ccc(-c2cccc(Oc3ccc(C#N)cc3S(=O)(=O)NC(=O)NC(C)(C)C)c2)cc1 [NTP4, N-(tert-butylcarbamoyl)-5-cyano-2-((4′-methoxy-[1,1′-biphenyl]-3-yl)oxy)benzenesulfonamide]	41.5 ± 7.69	40.3 ± 7.08	–
COc1ccc(-c2cccc(Oc3ccc([N+](=O)[O-])cc3S(=O)(=O)NC(=O)NC(C)(C)C)c2)cc1 [TP20, N-(tert-butylcarbamoyl)-2-((4′-methoxy-[1,1′-biphenyl]-3-yl)oxy)-5-nitrobenzene-sulfonamide]	–	4.62 ± 0.72	4.71
